Assay results taken from patent US12227551B2, “Membrane bound IL12 compositions and methods for tunable regulation” (Obsidian Therapeutics, Inc., priority 2018, dated 2025).

System: primary human T cells
Experiment: Surface CAR and surface IL12 in CAR+ gate after 20 hours vardenafil, CD19-CAR-P2A-mbIL12-PDE5 constructs (Example 8; Table 22)
Format: cell-based
Conditions: 5 μM Vardenafil, CAR+ cell gate, regulated CD19-CAR-P2A-mbIL12-PDE5 constructs
Procedure: On day 0, primary human T cells were stimulated with Dynabeads (T-expander CD3/CD28) at a 3:1 bead: cell ratio in media containing 10% fetal bovine serum (FBS). The next day, lentivirus produced with constructs OT-001407 (CAR only control), OT-001895, OT-001894, OT-001891, OT-002044 were added in the presence of reduced serum (5% FBS). On day 2, the cells were diluted 1:2 with fresh 10% FBS media. […] After overnight incubation, transduction efficiency was analyzed by flow cytometry using CD19-Fc to detect surface CAR expression. Surface IL12 expression within the CAR+ cell gate was detected with an anti-IL12p70 antibody (BD, Franklin Lakes, N.J.) and is shown in Table 22.

## CCCc1nc(C)c2c(=O)[nH]c(-c3cc(S(=O)(=O)N4CCN(CC)CC4)ccc3OCC)nn12 [vardenafil, Vardenafil]
  increases in expression of surface IL12 compared to vehicle control: 17-24 fold
